Patent US9409884B2 (Rigel Pharmaceuticals, Inc., priority 2012, dated 2016)

Molecular target: AMPK
Test: AMPK activation, enzyme-linked immunosorbent assay
Format: biochemical
Method: Compounds of Table 1 were assayed for their ability to activate AMPK using an enzyme-linked immunosorbent assay.
Compounds of Table 2 were assayed for their ability to activate AMPK using an enzyme-linked immunosorbent assay.
Compounds of Table 3 were assayed for their ability to activate AMPK using an enzyme-linked immunosorbent assay.
Compounds of Table 4 were assayed for their ability to activate AMPK using an enzyme-linked immunosorbent assay.
Compounds of Table 5 were assayed for their ability to activate AMPK using an enzyme-linked immunosorbent assay.
Compounds of Table 6 were assayed for their ability to activate AMPK using an enzyme-linked immunosorbent assay.
Compounds of Table 7 were assayed for their ability to activate AMPK using an enzyme-linked immunosorbent assay.

| SMILES | EC50 (Table 14, compounds of Table 7) [nM] | EC50 (Table 8, compounds of Table 1) [nM] |
| --- | --- | --- |
| N#Cc1ccc(CN2CC[C@@H](NC(=O)c3ccc(C(=O)N4CCC(Oc5ccc(S(=O)(=O)C(F)(F)F)cc5)CC4)nc3)[C@H](F)C2)cc1 (relative stereo) [Compound 7-119, N-((trans)-1-(4-cyanobenzyl)-3-fluoropiperidin-4-yl)-6-(4-(4-(trifluoromethylsulfonyl)phenoxy)piperidine-1-carbonyl)nicotinamide] | < 1000 |  |
| COc1ccc(C(=O)C2CCN(C(=O)c3ccc(C(=O)N[C@H]4CCN(Cc5ccc(OC(F)(F)F)cc5)C[C@H]4F)cn3)CC2)cc1 (relative stereo) [Compound 7-123, N-((cis)-3-fluoro-1-(4-(trifluoromethoxy)benzyl)piperidin-4-yl)-6-(4-(4-methoxybenzoyl)piperidine-1-carbonyl)nicotinamide] | < 1000 |  |
| COc1ccc(C(=O)C2CCN(C(=O)c3ccc(C(=O)N[C@@H]4CCN(Cc5ccc(C#N)cc5)C[C@H]4F)cn3)CC2)cc1 (single isomer, unassigned) [Compound 7-106] | < 1000 |  |
| COc1ccc(C(=O)C2CCN(C(=O)c3ccc(C(=O)N[C@H]4CCN(Cc5ccc(C#N)cc5)C[C@@H]4F)cn3)CC2)cc1 (single isomer, unassigned) [Compound 7-107] | < 1000 |  |
| N#Cc1ccc(N2CCC(Oc3ccc(C(=O)NC4CCN(Cc5ccncc5)CC4)nc3)CC2)cc1 [Compound 1-1, 5-(1-(4-cyanophenyl)piperidin-4-yloxy)-N-(1-(pyridin-4-ylmethyl)piperidin-4-yl)picolinamide] |  | 100 to 500 |
| N#Cc1ccc(CN2CCC(NC(=O)c3ccc(OC4CCN(c5ccc(C#N)cc5)CC4)cn3)CC2)cc1 [Compound 1-2, N-(1-(4-cyanobenzyl)piperidin-4-yl)-5-(1-(4-cyanophenyl)piperidin-4-yloxy) picolinamide] |  | < 100 |
| O=C(NC1CCN(Cc2ccncc2)CC1)c1ccc(OC2CCN(c3ccc(C(F)(F)F)cc3)CC2)cn1 [Compound 1-3, N-(1-(pyridin-4-ylmethyl)piperidin-4-yl)-5-(1-(4-(trifluoromethyl)phenyl)piperidin-4-yloxy)picolinamide] |  | < 100 |
| N#Cc1ccc(CN2CCC(NC(=O)c3ccc(OC4CCN(c5ccc(C(F)(F)F)cc5)CC4)cn3)CC2)cc1 [Compound 1-4, N-(1-(4-cyanobenzyl)piperidin-4-yl)-5-(1-(4-(trifluoromethyl)phenyl)piperidin-4-yloxy) picolinamide] |  | < 100 |
| O=C(NC1CCN(Cc2cccnc2)CC1)c1ccc(OC2CCN(c3ccc(C(F)(F)F)cc3)CC2)cn1 [Compound 1-5, N-(1-(pyridin-3-ylmethyl)piperidin-4-yl)-5-(1-(4-(trifluoromethyl)phenyl)piperidin-4-yloxy) picolinamide] |  | < 100 |
| N#Cc1ccc(N2CCC(Oc3ccc(C(=O)NC4CCN(Cc5cccnc5)CC4)nc3)CC2)cc1 [Compound 1-6, N-(1-(pyridin-3-ylmethyl)piperidin-4-yl)-5-(1-(4-cyanophenyl)piperidin-4-yloxy)picolinamide] |  | 100 to 500 |
| COC(=O)c1ccc(CN2CCC(NC(=O)c3ccc(OC4CCN(c5ccc(C#N)cc5)CC4)cn3)CC2)cc1 [Compound 1-7, methyl 4-((4-(5-(1-(4-cyanophenyl)piperidin-4-yloxy)picolinamido)piperidin-1-yl)methyl)benzoate] |  | < 100 |
| COC(=O)c1ccc(CN2CCC(NC(=O)c3ccc(OC4CCN(c5ccc(C(F)(F)F)cc5)CC4)cn3)CC2)cc1 [Compound 1-8, methyl 4-((4-(5-(1-(4-(trifluoromethyl)phenyl)piperidin-4-yloxy)picolinamido)piperidin-1-yl)methyl)benzoate] |  | < 100 |
| CC(C)(C)OC(=O)N1CCC(NC(=O)c2ccc(OC3CCN(c4ccc(C(F)(F)F)cc4)CC3)nc2)CC1 [Compound 1-9, tert-butyl 4-(6-(1-(4-(trifluoromethyl)phenyl)piperidin-4-yloxy)nicotinamido) piperidine-1-carboxylate] |  | 100 to 500 |
| O=C(NC1CCN(Cc2ccncc2)CC1)c1ccc(OC2CCN(c3ccc(C(F)(F)F)cc3)CC2)nc1 [Compound 1-10, N-(1-(pyridin-4-ylmethyl)piperidin-4-yl)-6-(1-(4-(trifluoromethyl)phenyl)piperidin-4-yloxy)nicotinamide] |  | < 100 |
| O=C(NC1CCN(Cc2ccc(F)cc2)CC1)c1ccc(OC2CCN(c3ccc(C(F)(F)F)cc3)CC2)nc1 [Compound 1-11, N-(1-(4-fluorobenzyl)piperidin-4-yl)-6-(1-(4-(trifluoromethyl)phenyl)piperidin-4-yloxy)nicotinamide] |  | < 100 |
| CC(C)(C)OC(=O)N1CCC(NC(=O)c2cc(OC3CCN(c4ccc(C(F)(F)F)cc4)CC3)ccn2)CC1 [Compound 1-12, tert-butyl 4-(4-(1-(4-(trifluoromethyl)phenyl)piperidin-4-yloxy)picolinamido) piperidine-1-carboxylate] |  | 500 to 1000 |

| SMILES | EC50 (Table 14, compounds of Table 7) [nM] | EC50 (Table 8, compounds of Table 1) [nM] |
| --- | --- | --- |
| O=C(NC1CCN(Cc2ccncc2)CC1)c1cc(OC2CCN(c3ccc(C(F)(F)F)cc3)CC2)ccn1 [Compound 1-13, N-(1-(pyridin-4-ylmethyl)piperidin-4-yl)-4-(1-(4-(trifluoromethyl)phenyl)piperidin-4-yloxy)picolinamide] |  | 100 to 500 |
| O=C(NC1CCN(Cc2ccncc2)CC1)c1cncc(OC2CCN(c3ccc(C(F)(F)F)cc3)CC2)c1 [Compound 1-14, N-(1-(pyridin-4-ylmethyl)piperidin-4-yl)-5-(1-(4-(trifluoromethyl)phenyl)piperidin-4-yloxy)nicotinamide] |  | < 100 |
| CC(C)(C)OC(=O)N1CCC(NC(=O)c2ccnc(OC3CCN(c4ccc(C(F)(F)F)cc4)CC3)c2)CC1 [Compound 1-15, tert-butyl 4-(2-(1-(4-(trifluoromethyl)phenyl)piperidin-4-yloxy)isonicotinamido) piperidine-1-carboxylate] |  | 1000 to 5000 |
| O=C(NC1CCN(Cc2ccc(F)cc2)CC1)c1cncc(OC2CCN(c3ccc(C(F)(F)F)cc3)CC2)c1 [Compound 1-16, N-(1-(4-fluorobenzyl)piperidin-4-yl)-5-(1-(4-(trifluoromethyl)phenyl)piperidin-4-yloxy)nicotinamide] |  | < 100 |
| N#Cc1ccc(CN2CCC(NC(=O)c3cncc(OC4CCN(c5ccc(C(F)(F)F)cc5)CC4)c3)CC2)cc1 [Compound 1-17, N-(1-(4-cyanobenzyl)piperidin-4-yl)-5-(1-(4-(trifluoromethyl)phenyl)piperidin-4-yloxy)nicotinamide] |  | < 100 |
| O=C(NC1CCN(Cc2cccnc2)CC1)c1cncc(OC2CCN(c3ccc(C(F)(F)F)cc3)CC2)c1 [Compound 1-18, N-(1-(pyridin-3-ylmethyl)piperidin-4-yl)-5-(1-(4-(trifluoromethyl)phenyl)piperidin-4-yloxy)nicotinamide] |  | < 100 |
| O=C(NC1CCNCC1)c1ccnc(OC2CCN(c3ccc(C(F)(F)F)cc3)CC2)c1 [Compound 1-19, N-(piperidin-4-yl)-2-(1-(4-(trifluoromethyl)phenyl)piperidin-4-yloxy) isonicotinamide] |  | 1000 to 5000 |
| O=C(NC1CCN(Cc2ccncc2)CC1)c1ccnc(OC2CCN(c3ccc(C(F)(F)F)cc3)CC2)c1 [Compound 1-20, N-(1-(pyridin-4-ylmethyl)piperidin-4-yl)-2-(1-(4-(trifluoromethyl)phenyl)piperidin-4-yloxy) isonicotinamide] |  | 500 to 1000 |
| N#Cc1ccc(CN2CCC(NC(=O)c3ccnc(OC4CCN(c5ccc(C(F)(F)F)cc5)CC4)c3)CC2)cc1 [Compound 1-21, N-(1-(4-cyanobenzyl)piperidin-4-yl)-2-(1-(4-(trifluoromethyl)phenyl)piperidin-4-yloxy) isonicotinamide] |  | 100 to 500 |
| O=C(NC1CCN(Cc2ccc(F)cc2)CC1)c1ccnc(OC2CCN(c3ccc(C(F)(F)F)cc3)CC2)c1 [Compound 1-22, N-(1-(4-fluorobenzyl)piperidin-4-yl)-2-(1-(4-(trifluoromethyl)phenyl)piperidin-4-yloxy) isonicotinamide] |  | 1000 to 5000 |
| CC(C)(C)OC(=O)N1CC[C@@H](NC(=O)c2ccc(OC3CCN(c4ccc(C(F)(F)F)cc4)CC3)cn2)C1 [Compound 1-23, (R)-tert-butyl 3-(5-(1-(4-(trifluoromethyl)phenyl)piperidin-4-yloxy)picolinamido) pyrrolidine-1-carboxylate] |  | 100 to 500 |
| O=C(N[C@@H]1CCNC1)c1ccc(OC2CCN(c3ccc(C(F)(F)F)cc3)CC2)cn1 [Compound 1-24, (R)-N-(pyrrolidin-3-yl)-5-(1-(4-(trifluoromethyl)phenyl)piperidin-4-yloxy) picolinamide] |  | 5000 to 10000 |
| O=C(N[C@@H]1CCN(Cc2ccncc2)C1)c1ccc(OC2CCN(c3ccc(C(F)(F)F)cc3)CC2)cn1 [Compound 1-25, (R)-N-(1-(pyridin-4-ylmethyl)pyrrolidin-3-yl)-5-(1-(4-(trifluoromethyl)phenyl)piperidin-4-yloxy)picolinamide] |  | 100 to 500 |
| CC(C)(C)OC(=O)N1CC[C@H](NC(=O)c2ccc(OC3CCN(c4ccc(C(F)(F)F)cc4)CC3)cn2)C1 [Compound 1-26, (S)-tert-butyl 3-(5-(1-(4-(trifluoromethyl)phenyl)piperidin-4-yloxy)picolinamido) pyrrolidine-1-carboxylate] |  | 100 to 500 |
| O=C(N[C@H]1CCNC1)c1ccc(OC2CCN(c3ccc(C(F)(F)F)cc3)CC2)cn1 [Compound 1-27, (S)-N-(pyrrolidin-3-yl)-5-(1-(4-(trifluoromethyl)phenyl)piperidin-4-yloxy)picolinamide] |  | > 10000 |
| N#Cc1ccc(CN2CCC(NC(=O)c3cc(OC4CCN(c5ccc(C(F)(F)F)cc5)CC4)ccn3)CC2)cc1 [Compound 1-28, N-(1-(4-cyanobenzyl)piperidin-4-yl)-4-(1-(4-(trifluoromethyl)phenyl)piperidin-4-yloxy)picolinamide] |  | < 100 |
